{"source": "patent US20260217652A1", "about": "“PHENYL-SUBSTITUTED HETEROARYL COMPOUND AND PHARMACEUTICAL COMPOSITION COMPRISING SAME, PREPARATION METHOD THEREFOR AND USE THEREOF” (SHANGHAI MEIYUE BIOTECH DEVELOPMENT CO., LTD., priority 2023, published 2026)", "data": [{"biological_target": "T1, p38 MAPK/MK2 (Homo sapiens, UniProt Q16539)", "T1 construct": "purchased Carna (p38α); Abcam (MK2) 04-152; 79910", "T1 sequence (Q16539 whole entry)": "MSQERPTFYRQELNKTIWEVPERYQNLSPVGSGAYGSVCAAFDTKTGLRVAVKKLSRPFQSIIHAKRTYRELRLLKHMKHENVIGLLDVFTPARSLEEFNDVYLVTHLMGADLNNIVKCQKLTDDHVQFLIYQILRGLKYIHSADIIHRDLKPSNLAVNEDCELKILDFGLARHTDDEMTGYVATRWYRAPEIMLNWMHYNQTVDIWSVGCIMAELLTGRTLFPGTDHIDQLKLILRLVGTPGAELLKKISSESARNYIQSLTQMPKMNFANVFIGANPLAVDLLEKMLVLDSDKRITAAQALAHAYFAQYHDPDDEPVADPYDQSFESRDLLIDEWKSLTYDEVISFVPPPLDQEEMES", "T1 sequence (P49137 whole entry partner)": "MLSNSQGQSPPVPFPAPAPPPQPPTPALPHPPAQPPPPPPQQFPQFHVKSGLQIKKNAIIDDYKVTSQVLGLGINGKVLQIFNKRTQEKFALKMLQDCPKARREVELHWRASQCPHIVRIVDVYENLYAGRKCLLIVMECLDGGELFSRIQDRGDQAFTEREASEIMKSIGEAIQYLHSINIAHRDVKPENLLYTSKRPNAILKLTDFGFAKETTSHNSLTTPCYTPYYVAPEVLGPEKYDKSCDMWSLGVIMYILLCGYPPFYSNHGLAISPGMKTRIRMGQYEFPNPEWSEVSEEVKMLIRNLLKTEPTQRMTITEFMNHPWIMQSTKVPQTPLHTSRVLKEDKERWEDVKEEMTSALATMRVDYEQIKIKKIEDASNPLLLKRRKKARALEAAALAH", "assay": "In vitro activity assay of p38 MAPK/MK2 (Z-LYTE kinase assay kit)", "type": "biochemical", "details": "active p38α, inactive MK2, Ser/Thr 4; 1-hour reaction at 20° C.", "protocol": "(§1) The inhibitory effect of the compound on p38 MAPK/MK2 was evaluated using the Z-LYTE kinase assay kit (Thermo, PV3177). The test compound was dissolved in DMSO to obtain a 10 mM stock solution and stored at −20° C. for future use. The initial concentration of the compound was […], with 1% DMSO, 5-fold serial dilution, 8 concentrations, and duplicate wells. […] After a 1-hour reaction at 20° C., Development Reagent A diluted 2048-fold was added to each well, followed by incubation at room temperature for 1 hour. The reaction was terminated by adding 5 μL of stop buffer, and the plate was read using a microplate reader (Ex. 400 nm, Em. 445 nm; Ex. 400 nm, Em. 520 nm). The concentration-effect curve was fitted using GraphPad Prism 8 software, and the compound concentration resulting in 50% inhibition, IC50, was calculated.", "units": {"IC50": "nM"}, "values": [{"smiles": "Cc1cnc(-c2cccc(C(=O)N(C)C)c2)c(F)c1-n1c(C)cc(OCc2ncc(F)cc2F)c(Cl)c1=O", "note": "[Compound 32]", "IC50": 3.65}, {"smiles": "Cc1cnc(-c2cccc(S(C)(=O)=O)c2)c(F)c1-n1c(C)cc(OCc2ncc(F)cc2F)c(Cl)c1=O", "note": "[Compound 33-P1]", "IC50": 0.056}, {"smiles": "Cc1cnc(-c2ccc(F)c([C@](C)(O)CO)c2)c(F)c1-n1c(C)cc(OCc2ncc(F)cc2F)c(Cl)c1=O", "note": "[Compound 51-P2]", "IC50": 0.71}, {"smiles": "Cc1cnc(-c2ccc(F)c(C(C)(C)O)c2)c(F)c1-n1c(C)cc(OCc2ncc(F)cc2F)c(Cl)c1=O", "note": "[Compound 70-P1]", "IC50": 0.38}, {"smiles": "Cc1cnc(-c2ccc(F)c(C(C)(C)O)c2)cc1-n1c(C)cc(OCc2ncc(F)cc2F)c(Cl)c1=O", "note": "[Compound 88-P2]", "IC50": 2.11}]}, {"biological_target": "T2, p38 MAPK/MK5 (Homo sapiens, UniProt Q16539)", "T2 construct": "purchased Carna (p38α); Abcam (MK5) 04-152; 217826", "T2 sequence (Q16539 whole entry)": "as the sequence (Q16539 whole entry) above", "assay": "In vitro activity assay of p38 MAPK/MK5 (Z-LYTE kinase assay kit)", "type": "biochemical", "details": "active p38α, inactive MK5, Ser/Thr 4; 4-hour reaction at 20° C.", "protocol": "as §1, with “MAPK/MK5” for “MAPK/MK2”, “4-hour” for “1-hour”, “µL” for “μL”", "units": {"IC50": "nM"}, "values": [{"smiles": "Cc1cnc(-c2cccc(C(=O)N(C)C)c2)c(F)c1-n1c(C)cc(OCc2ncc(F)cc2F)c(Cl)c1=O", "note": "[Compound 32]", "IC50": 6250}, {"smiles": "Cc1cnc(-c2ccc(F)c([C@](C)(O)CO)c2)c(F)c1-n1c(C)cc(OCc2ncc(F)cc2F)c(Cl)c1=O", "note": "[Compound 51-P2]", "IC50": 4490}]}, {"tested_on": "TNF-α in human PBMC cells", "assay": "In vitro TNF-α activity assay in human PBMC cell supernatant (LPS, ELISA)", "type": "cell-based", "details": "Homo sapiens, PBMC, 24 h, LPS 100 ng/mL, read-out: p38 MAPK/TNF-α IC50", "protocol": "(§2) The inhibitory effect of the compound on TNF-α in the supernatant of human PBMC cells was evaluated using an ELISA detection kit (Beyotime, PI518). The test compound was dissolved in DMSO to obtain a 10 mM stock solution and stored at −20° C. for future use. The initial concentration of the compound was […], followed by 5-fold serial dilution to obtain 6 concentrations. Cells were plated in duplicate, and ELISA was performed in single wells. The final concentration of DMSO was 0.4%. Alternatively, the initial concentration of the compound, dilution factor, number of concentration gradients, and replicates could be adjusted based on the specific screening conditions.\n(§3) Fresh human peripheral blood mononuclear cells (PBMCs) (Sailybio) were seeded at a density of 2×10^5 cells per well in a 96-well plate (Corning, 3599), with each well containing 100 μL of RPMI-1640 (Gibco #A1049101)+10% FBS (Gibco, 10099141C), and incubated overnight at 37° C. under 5% CO2. Test compounds were added to the 96-well culture plate at a volume of 25 μL per well. After 1 hour, 5 μL of LPS was added to achieve a final concentration of 100 ng/mL. No LPS and compound were added to the negative control wells, and no compound was added to the positive control wells. The mixture was further incubated for 24 hours at 37° C. under 5% CO2. Subsequently, the cell culture supernatant was collected by centrifugation at 500 rcf for 8 minutes. The concentration of TNF-α was measured according to the operation manual of the ELISA kit. The concentration-effect curve was fitted using GraphPad Prism 8 software, and the compound concentration resulting in 50% inhibition, IC50, was calculated.", "units": {"IC50": "nM"}, "values": [{"smiles": "Cc1cnc(-c2cccc(S(C)(=O)=O)c2)c(F)c1-n1c(C)cc(OCc2ncc(F)cc2F)c(Cl)c1=O", "note": "[Compound 33-P1]", "IC50": 2.93}, {"smiles": "Cc1cnc(-c2ccc(F)c(C(C)(C)O)c2)c(F)c1-n1c(C)cc(OCc2ncc(F)cc2F)c(Cl)c1=O", "note": "[Compound 70-P1]", "IC50": 11.2}]}, {"tested_on": "TNF-α in human PBMC cells", "assay": "In vitro TNF-α activity assay in human PBMC cell supernatant (LPS, ELISA)", "type": "cell-based", "details": "LPS 100 ng/mL, 24 hours, read-out: p38 MAPK/TNF-α IC50", "protocol": "as §2, §3", "units": {"IC50": "nM"}, "values": [{"smiles": "Cc1cnc(-c2cccc(C(=O)N(C)C)c2)c(F)c1-n1c(C)cc(OCc2ncc(F)cc2F)c(Cl)c1=O", "note": "[Compound 32]", "IC50": 2.89}]}, {"tested_on": "not listed separately", "assay": "In vitro liver microsome stability, human", "type": "in vitro ADME", "details": "liver microsomes, 0.5 mg/mL microsomes, 1 μM compound, NADPH, 37° C., read-out: Human liver microsomes Half-life T1/2", "protocol": "The reference compound used in this experiment was Ketanserin, and the final concentration of microsomes in the experimental system was 0.5 mg/mL. The PBS buffer was a 50 mM K2HPO4 buffer. The concentration of the test compound was 1 μM. The microsomes were added to PBS, and the control/test compounds were respectively added to the corresponding reaction systems, mixed thoroughly, and pre-incubated in a 37° C. water bath for 5 minutes. The reaction was initiated by adding 20 mM NADPH solution under 37° C. water bath conditions (for the No NADPH samples, an equal volume of PBS solution was used as a substitute for the 20 mM NADPH solution). At the reaction time points of 0 min, 10 min, 30 mun, 60 min, and 90 min, 30 μL of reaction samples were taken from each reaction system (for the No NADPH samples, sampling was performed at 0 min and 90 min), and the reaction was immediately terminated by adding 300 μL of the internal standard acetonitrile solution. After centrifugation at 4000 rpm, the supernatant was taken and mixed thoroughly with an equal volume of pure water. The samples at each time point were analyzed by LC-MS/MS (AB Triple Quard 5500) to determine the compound content, and the T1/2 was calculated.", "units": {"half-life at 1 μM": "h"}, "values": [{"smiles": "Cc1cnc(-c2ccc(F)c(C(C)(C)O)c2)c(F)c1-n1c(C)cc(OCc2ncc(F)cc2F)c(Cl)c1=O", "note": "[Compound 70-P1]", "half-life at 1 μM": "> 4.66"}, {"smiles": "Cc1cnc(-c2ccc(F)c(C(C)(C)O)c2)cc1-n1c(C)cc(OCc2ncc(F)cc2F)c(Cl)c1=O", "note": "[Compound 88-P2]", "half-life at 1 μM": "> 4.66"}]}, {"tested_on": "not listed separately", "assay": "Pharmacokinetic evaluation in mice", "type": "in vivo", "details": "mouse, plasma, intravenous injection group 1 mg/kg, read-out: Area under curve AUC0-24 h", "protocol": "(§4) The compound was weighed and dissolved in a mixed solvent of DMAC: Solutol: PBS (1:1:8. After intravenous/gastric administration to mice, whole blood ([…]) was collected at 0.083, 0.25, 0.5, 1, 2, 4, 7, and 24 hours. The samples were anticoagulated with EDTA-K2, immediately centrifuged at 4000 rpm for 5 minutes at 4° C., and the supernatant was frozen in a −80° C. refrigerator. Plasma sample processing: The samples were precipitated with an internal standard-containing CH3CN precipitant, followed by centrifugation at 12700 rpm for 10 min. The supernatant was collected and analyzed by LC-MS/MS (AB Triple Quard 5500) to obtain the plasma drug concentration. The parameters were calculated using a non-compartmental model in Winnolin version 8.1.", "units": {"AUC(0-t)": "ng·h/mL"}, "values": [{"smiles": "Cc1cnc(-c2cccc(S(C)(=O)=O)c2)c(F)c1-n1c(C)cc(OCc2ncc(F)cc2F)c(Cl)c1=O", "note": "[Compound 33-P1]", "AUC(0-t)": 1580}]}, {"tested_on": "not listed separately", "assay": "Pharmacokinetic evaluation in mice", "type": "in vivo", "details": "mouse, plasma, intravenous injection group 1 mg/kg, read-out: Clearance CL (converted)", "protocol": "as §4", "units": {"clearance": "mL/min/kg"}, "values": [{"smiles": "Cc1cnc(-c2cccc(S(C)(=O)=O)c2)c(F)c1-n1c(C)cc(OCc2ncc(F)cc2F)c(Cl)c1=O", "note": "[Compound 33-P1]", "clearance": 10.8}]}, {"tested_on": "not listed separately", "assay": "Pharmacokinetic evaluation in mice", "type": "in vivo", "details": "mouse, plasma, intravenous injection group 1 mg/kg, read-out: Half-life T1/2 (converted)", "protocol": "as §4", "units": {"half-life": "h"}, "values": [{"smiles": "Cc1cnc(-c2cccc(S(C)(=O)=O)c2)c(F)c1-n1c(C)cc(OCc2ncc(F)cc2F)c(Cl)c1=O", "note": "[Compound 33-P1]", "half-life": 0.98}]}, {"tested_on": "not listed separately", "assay": "Pharmacokinetic evaluation in mice", "type": "in vivo", "details": "mouse, plasma, intravenous injection group 1 mg/kg, read-out: Initial concentration C0", "protocol": "as §4", "units": {"C0": "ng/mL"}, "values": [{"smiles": "Cc1cnc(-c2cccc(S(C)(=O)=O)c2)c(F)c1-n1c(C)cc(OCc2ncc(F)cc2F)c(Cl)c1=O", "note": "[Compound 33-P1]", "C0": 3200}]}, {"tested_on": "not listed separately", "assay": "Pharmacokinetic evaluation in mice", "type": "in vivo", "details": "mouse, plasma, intravenous injection group 1 mg/kg, read-out: Volume of distribution Vd", "protocol": "as §4", "units": {"Vd": "L/kg"}, "values": [{"smiles": "Cc1cnc(-c2cccc(S(C)(=O)=O)c2)c(F)c1-n1c(C)cc(OCc2ncc(F)cc2F)c(Cl)c1=O", "note": "[Compound 33-P1]", "Vd": 0.32}]}, {"tested_on": "not listed separately", "assay": "Pharmacokinetic evaluation in mice", "type": "in vivo", "details": "mouse, plasma, po, intragastric administration group 5 mg/kg, read-out: Area under curve AUC0-24 h", "protocol": "as §4", "units": {"AUC(0-t)": "ng·h/mL"}, "values": [{"smiles": "Cc1cnc(-c2cccc(S(C)(=O)=O)c2)c(F)c1-n1c(C)cc(OCc2ncc(F)cc2F)c(Cl)c1=O", "note": "[Compound 33-P1]", "AUC(0-t)": 2800}]}, {"tested_on": "not listed separately", "assay": "Pharmacokinetic evaluation in mice", "type": "in vivo", "details": "mouse, plasma, po, intragastric administration group 5 mg/kg, read-out: Bioavailability F %", "protocol": "as §4", "units": {"bioavailability": "%"}, "values": [{"smiles": "Cc1cnc(-c2cccc(S(C)(=O)=O)c2)c(F)c1-n1c(C)cc(OCc2ncc(F)cc2F)c(Cl)c1=O", "note": "[Compound 33-P1]", "bioavailability": 36.9}]}, {"tested_on": "not listed separately", "assay": "Pharmacokinetic evaluation in mice", "type": "in vivo", "details": "mouse, plasma, po, intragastric administration group 5 mg/kg, read-out: Half-life T1/2 (converted)", "protocol": "as §4", "units": {"half-life": "h"}, "values": [{"smiles": "Cc1cnc(-c2cccc(S(C)(=O)=O)c2)c(F)c1-n1c(C)cc(OCc2ncc(F)cc2F)c(Cl)c1=O", "note": "[Compound 33-P1]", "half-life": 1.99}]}, {"tested_on": "not listed separately", "assay": "Pharmacokinetic evaluation in mice", "type": "in vivo", "details": "mouse, plasma, po, intragastric administration group 5 mg/kg, read-out: Maximum concentration Cmax", "protocol": "as §4", "units": {"Cmax": "ng/mL"}, "values": [{"smiles": "Cc1cnc(-c2cccc(S(C)(=O)=O)c2)c(F)c1-n1c(C)cc(OCc2ncc(F)cc2F)c(Cl)c1=O", "note": "[Compound 33-P1]", "Cmax": 3670}]}]}
